Assays:
[1] = target: intracellular domain of human Tie2 (GST fusion protein) (Homo sapiens (Human), UniProt Q02763); assay: Tie2 kinase assay (Tie2-TR-FRET); format: biochemical; conditions: ATP concentration 1 mM; in some cases means of several independent determinations
Procedure: The Tie2-inhibitory activity of the substances according to the invention was determined with the aid of one of the Tie2-TR-FRET assays described in the sections below at an ATP concentration of 1 mM (TR-FRET=Time-Resolved Fluorescence Resonance Energy Transfer):
The enzyme used was a recombinant fusion protein of glutathione S-transferase (GST) and the intracellular domain of human Tie2 (amino acids 776-1124) which was expressed in Baculovirus-infected insect cells (Hi5) and was purified by affinity chromatography on glutathione-Sepharose. Alternatively, it is also possible to use commercially available GST-His6-Tie2 fusion protein (ProQinase GmbH, Freiburg im Breisgau, Germany). The substrate used for the kinase reaction was the biotinylated peptide biotin-Ahx-[…] […]
The reaction was stopped by addition of 5 μl of a solution of TR-FRET detection reagents [200 nM streptavidin-XL665 and 2 nM PT66-Eu chelate, a europium chelate-labelled anti-phosphotyrosine antibody (Perkin-Elmer); alternatively, it is also possible to use PT66-Tb cryptate (Cisbio Bioassays, Codolet, France)] in aqueous EDTA solution [90 mM EDTA, 0.28% (w/v) bovine serum albumin (BSA) in 50 mM HEPES pH 7.5]. […] The amount of phosphorylated substrate was then determined by measuring the resonance energy transfer from PT66-Eu chelate to streptavidin-XL665. […]

endogenous Tie2 receptor = endogenous Tie2 receptor (Homo sapiens (Human), UniProt Q02763); assay: Tie2-pTyr-ELISA (Tie2 autophosphorylation in HUVEC); format: cell-based; conditions: autophosphorylation elevated by 4 mM sodium orthovanadate, from 2-7 independent measurements
Procedure: The cellular activity of the compounds according to the invention as Tie2 kinase inhibitors was determined in human endothelial cells (HUVEC) by measuring the inhibition of the autophosphorylation, elevated by treatment with sodium orthovanadate, of the endogenous Tie2 receptor by means of a Tie2/phosphotyrosine sandwich ELISA.
Human endothelial cells (human umbilical vein endothelial cells, HUVEC) were obtained from Cellsystems (FC-0003), cultured in Vasculife VEGF complete medium (Cellsystems, LL-1020) with 2% foetal calf serum (FCS) at 37° C./5% CO2 and used for Tie2-ELISA measurements up to passage 8.
HUVEC were plated in a culture volume of 100 μl of Vasculife VEGF complete medium at a cell density of 30 000 cells per well in transparent collagen-coated 96-well cell culture plates (Falcon, #353075) and incubated in an incubation cabinet at 37° C./5% CO2 overnight. The test substances dissolved in DMSO were used to prepare in each case one dilution series in Vasculife VEGF low-serum medium [basal medium with LifeFactors (Cellsystems, LM-0002), without FCS, with 0.1% BSA] without sodium orthovanadate and one dilution series in Vasculife VEGF low-serum-medium with 8 mM sodium orthovanadate in the desired concentrations in the range from […] to […], the final DMSO concentration being 1%. […]

Sequence of endogenous Tie2 receptor (Q02763 23-1124): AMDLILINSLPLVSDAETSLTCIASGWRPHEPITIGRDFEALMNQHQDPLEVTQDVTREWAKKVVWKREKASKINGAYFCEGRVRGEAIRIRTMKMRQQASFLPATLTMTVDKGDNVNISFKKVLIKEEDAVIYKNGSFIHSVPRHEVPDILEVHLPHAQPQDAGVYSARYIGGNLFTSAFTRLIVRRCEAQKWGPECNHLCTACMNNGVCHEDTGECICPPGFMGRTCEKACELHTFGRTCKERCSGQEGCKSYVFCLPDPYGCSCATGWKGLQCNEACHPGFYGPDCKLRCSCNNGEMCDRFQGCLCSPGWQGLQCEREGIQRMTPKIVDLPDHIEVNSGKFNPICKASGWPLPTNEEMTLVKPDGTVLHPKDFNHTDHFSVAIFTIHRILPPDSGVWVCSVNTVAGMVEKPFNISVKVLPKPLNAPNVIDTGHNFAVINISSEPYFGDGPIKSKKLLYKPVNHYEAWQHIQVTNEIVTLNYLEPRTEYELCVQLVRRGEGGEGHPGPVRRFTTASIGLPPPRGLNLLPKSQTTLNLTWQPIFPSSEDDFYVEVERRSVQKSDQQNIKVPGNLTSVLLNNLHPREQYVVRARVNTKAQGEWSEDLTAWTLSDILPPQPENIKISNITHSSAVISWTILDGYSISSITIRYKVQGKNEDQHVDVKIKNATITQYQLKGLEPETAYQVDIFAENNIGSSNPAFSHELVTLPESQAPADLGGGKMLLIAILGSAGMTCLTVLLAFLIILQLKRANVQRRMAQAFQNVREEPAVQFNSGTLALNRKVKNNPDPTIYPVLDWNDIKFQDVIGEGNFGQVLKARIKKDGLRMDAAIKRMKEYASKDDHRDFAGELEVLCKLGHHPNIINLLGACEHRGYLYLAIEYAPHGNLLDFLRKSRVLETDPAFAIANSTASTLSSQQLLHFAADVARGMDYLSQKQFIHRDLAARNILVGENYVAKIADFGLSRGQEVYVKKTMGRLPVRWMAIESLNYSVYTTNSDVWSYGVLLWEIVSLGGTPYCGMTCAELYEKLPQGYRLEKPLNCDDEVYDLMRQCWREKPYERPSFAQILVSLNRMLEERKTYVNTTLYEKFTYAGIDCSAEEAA
Sequence of intracellular domain of human Tie2 (GST fusion protein) (Q02763 776-1124): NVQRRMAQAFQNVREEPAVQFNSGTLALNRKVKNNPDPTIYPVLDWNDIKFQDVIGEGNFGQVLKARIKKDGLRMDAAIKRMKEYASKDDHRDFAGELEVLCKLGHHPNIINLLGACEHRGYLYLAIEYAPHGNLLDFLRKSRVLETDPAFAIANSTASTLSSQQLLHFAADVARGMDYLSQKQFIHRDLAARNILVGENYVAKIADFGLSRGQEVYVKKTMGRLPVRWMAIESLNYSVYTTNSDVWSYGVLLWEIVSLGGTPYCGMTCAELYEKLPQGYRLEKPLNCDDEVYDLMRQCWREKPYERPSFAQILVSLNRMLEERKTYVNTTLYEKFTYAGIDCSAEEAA

Cc1ccc(NC(=O)c2cc(C#N)cc(S(F)(F)(F)(F)F)c2)cc1-n1ccn2nc(-c3cn[nH]c3)cc12 [Example 85, 3-Cyano-N-{4-methyl-3-[6-(1H-pyrazol-4-yl)-1H-imidazo[1,2-b]pyrazol-1-yl]phenyl}-5-(pentafluoro-λ^6-sulphanyl)benzamide]
IC50 [1]: 20 nM | IC50 (endogenous Tie2 receptor): 44 nM

— US9394309B2, “Substituted phenylimidazopyrazoles and their use” (BAYER INTELLECTUAL PROPERTY GmbH, priority 2012, dated 2016)
